Results published in patent US20240366842A1, “DECELLULARIZED TISSUE HYDROGELS” (THE UNIVERSITY OF NOTTINGHAM, priority 2021, published 2024).

Tests used:
[1] = test system: SH-SY5Y (human neuroblastoma cell line); assay: LDH cytotoxicity assay, indirect (extract) testing; assay type: cell-based; conditions: media conditioned 72 hours, cells exposed 24 hours, 1 mM in 5% v/v DMSO, 10 mM in 10% v/v DMSO
Protocol: (§1) The cytotoxicity of PA crosslinked decellularized tissue hydrogels was assessed by an LDH assay in which hydrogels were incubated with SH-SY5Y (human neuroblastoma cell line).
(§2) Crosslinkers tested were: • PA [publicly available food supplement] • Purified oligomeric PA (OPA) [reference standard quality] • GA • GP
(§3) These were all tested in 1 and 10 mM concentrations, with the 1 mM in a solution containing 5% v/v of DMSO, and the 10 mM in a solution containing 10% v/v DMSO.
(§4) The LDH assay quantifies how many cells have died by quantifying the level of lactate that is present in the culture medium which will have been released upon cell membrane disruption during their death. The assay contains […] releases NADH which in turn can react with the dye present in the assay solutions to produce a colorimetric change. This change can be read through absorbance on a microplate spectrophotometer.
(§5) All results for the LDH have been calculated to % cytotoxicity as per the following formula recommended by the manufacturer: […]
Gels were made and crosslinked as per normal procedure and immersed in culture media for 72 hours conditioning. The conditioned culture media was then filtered and placed onto cells for a period of 24 hours. Following exposure to the conditioned media, a sample of the media was removed for testing through LDH.

[2] = test system: SH-SY5Y (human neuroblastoma cell line); assay: LDH cytotoxicity assay, direct testing; assay type: cell-based; conditions: gel in contact with cell monolayer 24 hours, 1 mM in 5% v/v DMSO, 10 mM in 10% v/v DMSO
Protocol: as §1, §2, §3, §4, §5
Gels were made and crosslinked as per normal procedure and immersed in Hanks balanced salt solution (HBSS) containing 1% v/v of antibiotics and antimycotics overnight. The gels were then removed and immersed into culture media for 2 hours before placing on top of the cell monolayer and ensuring direct contact. […]

Triton-X-100 [5% Triton]
LDH (% cytotoxicity relative to Triton) [1]: 100%
LDH (% cytotoxicity relative to Triton) [2]: 100%
